Legend:
[1] = tested on: rats; assay: Striatal lesions produced by systemic 3-NP; type: in vivo, rat
Description: Systemic 3-NP treatment. 3-NP was diluted in water and adjusted to pH 7.4 with NaOH and administered at a dose of 10 mg/kg i.p. every 12 h. With this dosing regimen the animals become acutely ill after 4 to 5 days and show large striatal lesions. (Beal et al. (1993) J. Neurosci. 13:4181-4192.) At the same time points, 25 mg/kg of 7-NI dissolved in peanut oil at a concentration of 10 mg/ml (treated group) or vehicle alone (peanut oil, control group) was administered s.c.. Since there was variability in the times at which animals became ill, they were clinically examined 3 hours after the injections and 1 animal of each group was sacrificed when an animal was acutely ill, regardless of whether it was a vehicle treated control or a 7-NI treated animal. In an initial experiment 12 animals per group were studied. Following sacrifice, striatal lesion size was assessed by TTC staining.
In a second experiment, 5 animals per group were studied with the same treatment paradigm. Since the first experiment had shown by pairwise sacrifice that the vehicle treated animals always became ill before the 7-NI treated animals, a third experimental group of 5 animals was included to determine whether 7-NI treated animals become ill following administration of 3-NP. […] In this experiment animals were deeply anesthetized and transcardially perfused with ice cold saline, followed by phosphate buffered 4% paraformaldehyde (Beal et al. (1991) J. Neurosci. 11:1649-1659). Brains were sectioned at 50 μm intervals on a freezing microtome. Combined staining for Nissl substance and NADPH-diaphorase was performed. Adjacent sections were stained by immunohistochemistry with antibodies against ^8 -hydroxy-2deoxyguanosine.

[2] = tested on: Male Sprague-Dawley rats; assay: Striatal lesions produced by intrastriatal NMDA, AMPA, KA (TTC staining); type: in vivo, rat
Description: Stereotaxic Lesion Technique. Male Sprague-Dawley rats (Charles River, Cambridge, Mass.) weighing 300-325 g were anesthetized with pentobarbital (50 mg/kg i.p.) and positioned in a David Kopf stereotaxic instrument with the incisor bar set at 3.3 mm below the intermural line. Malonate, NMDA, KA, and AMPA were dissolved in 0.1M phosphate-buffered saline (pH, 7.4). Intrastriatal injections were made with a 10 μl Hamilton syringe fitted with a 30 gauge blunt-tipped needle into the left striatum at the coordinates 0.5 mm anterior bregma, 2.6 mm lateral to the midline and 5 mm ventral to the dura. Injection volumes were 1 μl (3 μmol malonate). All injections were made over 1 min and the needle was left in place for an additional 1 min before being slowly withdrawn. 7-NI was dissolved and sonicated in peanut oil at a concentration of 10 mg/ml. 50 mg/kg of 7-NI were administered i.p. 30 min before striatal injections of malonate, NMDA, KA and AMPA. […] Nine to ten animals were used per group in each experiment.
Quantification of Lesion Volume. One week after the striatal injections, animals were sacrificed by decapitation and the brains were rapidly removed, placed in cold saline for 10 min, and sectioned coronally into slices at 2 mm intervals. Slices were stained in 2% 2,3,5-triphenyltetrazolium chloride monohydrate (TTC) (Sigma, St. Louis, Mo.) solution at room temperature in the dark for 30 min followed by fixation in phosphate-buffered 4% paraformaldehyde. (Bederson et al. (1986) Stroke 17:1304-1308.) The lesioned area (noted by pale staining) was measured on the posterior surface of each section using an Apple Macintosh.COPYRGT. based image analysis system (Sony color video camera, Software: ColorSnap.COPYRGT. (Computer Friends Inc., Portland, Oreg.) and IPLab Spectrum.COPYRGT. (Signal Analytics, Vienna, Va.)). The lesions were evaluated by an experienced histologist, who verified the reliability of the TTC measurements in animals injected with malonate on adjacent sections stained with either TTC or Nissl stain (Schulz et al. (1995) J. Neurochem 64:in press).

[3] = 2 doses of 50 mg/kg 7-NI 4 h and 0.5 h before striatal injection

O=[N+]([O-])c1cccc2cn[nH]c12 [7-NI, 7-nitroindazole]
protection of striatum from 3-NP lesions (Nissl/NADPH-diaphorase histology) ([1]; 3-NP 10 mg/kg every 12 h with 7-NI, n=5): completed protected | striatal lesions produced by 3-NP (TTC staining) ([1]; 3-NP 10 mg/kg i.p. every 12 h, 7-NI 50 mg/kg every 12 h as printed): completely prevented | median accumulative 3-NP dose at first symptoms ([1]; 12 h): 130 mg/kg | protection against lesions produced by 5 nmol KA [2, 3]: no protection | protection against lesions produced by 30 nmol AMPA [2, 3]: no protection | protection against lesions produced by 200 nmol NMDA [2, 3]: 35% | striatal lesion volume, 200 nmol NMDA ([2]; single dose 7-NI 50 mg/kg i.p. before striatal injection, vehicle 25.0±2.4): 21.3±3.4 mm^3 | striatal lesion volume, 30 nmol AMPA ([2]; single dose 7-NI 50 mg/kg i.p. before striatal injection, vehicle 33.6±4.6): 30.4±5.2 mm^3 | striatal lesion volume, 5 nmol KA ([2]; single dose 7-NI 50 mg/kg i.p. before striatal injection, vehicle 39.5±2.9): 36.3±4.4 mm^3
